Reference: US10280145B2 (Toray Industries, Inc., priority 2015, dated 2019)

Target: T1, intracellular domain of DDR1 (Homo sapiens, UniProt Q08345)
T1 construct: the intracellular domain of DDR1 (in a final concentration of 5 ng/μL) (Carna Biosciences, Inc.); purchased Carna Biosciences, Inc
Assay: Evaluation of DDR1 inhibition activity with HTRF KinEASE-TK kit
Format: biochemical
Details: DDR1 intracellular domain 5 ng/μL, ATP 25 μm/L, TK Substrate-biotin 1000 nmol/L, room temperature, one hour
Experimental: The DDR1 inhibition activity in the compounds of Examples 1 to 80 was evaluated with HTRF® KinEASE-TK kit (Cisbio Bioassays).
Each test substance was dissolved in dimethyl sulfoxide and then used for the evaluation as described below. Moreover, each of test substances and reagents was diluted in the kinase buffer (Cisbio Bioassays) prepared by adding thereto MgCl2, MnCl2, DTT, and the Supplemental Enzyme buffer (Cisbio Bioassays) to concentrations of 5 mmol/L, 0.5 mmol/L, 0.25 mmol/L, and 50 nmol/L, respectively, and then used. Each test substance (in DMSO in a final concentration of 1%), the intracellular domain of DDR1 (in a final concentration of 5 ng/μL) (Carna Biosciences, Inc.), the phosphate donor ATP (in final concentration of 25 μm/L) (Sigma), and the substrate TK Substrate-biotin (in a final concentration of 1000 nmol/L) (Cisbio Bioassays) were added to a 384-well black plate (Corning) and allowed to react at room temperature for one hour. After completion of the reaction, the TK Antibody-Cryptate (Cisbio Bioassays) and the Streptavidin-XL665 (Cisbio Bioassays) were added thereto and allowed to react at room temperature for one hour. In addition, the plate was provided with a well to which a test substance was not added, and with a well to which a test substance and the intracellular domain of DDR1 were […].
The fluorescence intensity in each well was measured using a multi-label counter (Envision, PerkinElmer; excitation wavelength: 320 nm, measurement wavelength: 665 nm and 620 nm) to calculate a ratio (the fluorescence intensity at 665 nm/the fluorescence intensity at 620 nm). The inhibition rate (%) of a test substance at each concentration was calculated based on the formula below: Inhibition rate (%)=([the ratio obtained from the well containing no test substance]−[the ratio from a well containing a test substance])/([the ratio obtained from the well containing no test substance]−[the ratio obtained from the well containing no intracellular domain of DDR1 and no test substance])×100.
The calculated inhibition rates were fitted to a sigmoidal dose-response curve by regression analysis using the Prism 5.04 (GraphPad Software, Inc.) to calculate the IC50 value of the test substance.

T1 sequence (Q08345 439-913 limits assumed): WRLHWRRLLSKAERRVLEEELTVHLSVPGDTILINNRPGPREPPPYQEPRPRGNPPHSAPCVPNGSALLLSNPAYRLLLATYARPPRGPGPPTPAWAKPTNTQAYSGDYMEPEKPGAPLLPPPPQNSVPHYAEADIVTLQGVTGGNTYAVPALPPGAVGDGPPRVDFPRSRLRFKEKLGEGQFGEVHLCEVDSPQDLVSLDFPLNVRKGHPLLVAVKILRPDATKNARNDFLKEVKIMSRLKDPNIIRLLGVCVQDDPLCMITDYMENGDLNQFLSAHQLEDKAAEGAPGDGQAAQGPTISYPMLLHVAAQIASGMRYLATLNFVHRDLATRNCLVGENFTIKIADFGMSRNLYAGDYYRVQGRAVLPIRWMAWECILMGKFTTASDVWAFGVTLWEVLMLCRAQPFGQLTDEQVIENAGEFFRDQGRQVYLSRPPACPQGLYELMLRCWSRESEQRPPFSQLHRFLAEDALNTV

| Structure (SMILES) | IC50 |
| --- | --- |
| O=C(Nc1cc(C(F)(F)F)ccc1OC1CCNCC1)N[C@H]1CC[C@H](OCc2ccncc2)CC1 [Example 32, 1-(2-(piperidin-4-yloxy)-5-(trifluoromethyl)phenyl)-3-(trans-4-(pyridin-4-ylmethoxy)cyclohexyl)urea] | 10 nM |
| CC(=O)N1CCC(Oc2ccc(C(F)(F)F)cc2NC(=O)N[C@H]2CC[C@H](OCc3ccncc3)CC2)CC1 [Example 34, 1-(2-((1-acetylpiperidin-4-yl)oxy)-5-(trifluoromethyl)phenyl)-3-(trans-4-(pyridin-4-ylmethoxy)cyclohexyl)urea] | 51 nM |
| O=C(Nc1cc(C(F)(F)F)ccc1O[C@@H]1CCNC1)N[C@H]1CC[C@H](OCc2ccncc2)CC1 [Example 35, 1-(trans-4-(pyridin-4-ylmethoxy)cyclohexyl)-3-(2-((R)-pyrrolidin-3-yloxy)-5-(trifluoromethyl)phenyl)urea] | 88.6 nM |
| CNc1cc(O[C@H]2CC[C@H](NC(=O)Nc3cc(C(F)(F)F)ccc3OC3CNC3)CC2)ncn1 [Example 42] | 27.2 nM |
| CNc1cc(O[C@H]2CC[C@H](NC(=O)Nc3cc(C(F)(F)F)ccc3OC3CCNCC3)CC2)ncn1 [Example 43] | 31.3 nM |
| O=C(Nc1cc(OC(F)(F)F)ccc1OC1COC1)N[C@H]1CC[C@H](Oc2ccnc(N3CCOCC3)n2)CC1 [Example 44, 1-(trans-4-((2-morpholinopyrimidin-4-yl)oxy)cyclohexyl)-3-(2-(oxetan-3-yloxy)-5-(trifluoromethoxy)phenyl)urea] | 128 nM |

The remaining lines, values ahead:

| IC50 | Structure (SMILES) |
| --- | --- |
| 28 nM | CC(=O)N1CC(Oc2ccc(C(F)(F)F)cc2NC(=O)N[C@H]2CC[C@H](OCc3ccncc3)CC2)C1 [Example 33, 1-(2-((1-acetylazetidin-3-yl)oxy)-5-(trifluoromethyl)phenyl)-3-(trans-4-(pyridin-4-ylmethoxy)cyclohexyl)urea] |
| 140 nM | O=C(Nc1cc(C(F)(F)F)ccc1O[C@H]1CCNC1)N[C@H]1CC[C@H](OCc2ccncc2)CC1 [Example 36, 1-(trans-4-(pyridin-4-ylmethoxy)cyclohexyl)-3-(2-((S)-pyrrolidin-3-yloxy)-5-(trifluoromethyl)phenyl)urea] |
| 149 nM | COc1ccc(C(F)(F)F)cc1NC(=O)N[C@H]1CC[C@H](Oc2ccnc(-c3cccnc3)n2)CC1 [Example 37, 1-(2-methoxy-5-(trifluoromethyl)phenyl)-3-(trans-4-((2-(pyridin-3-yl)pyrimidin-4-yl)oxy)cyclohexyl)urea] |
| 61 nM | O=C(Nc1cc(C(F)(F)F)ccc1OC1COC1)N[C@H]1CC[C@H](Oc2ccnc(-c3cccnc3)n2)CC1 [Example 38, 1-(2-(oxetan-3-yloxy)-5-(trifluoromethyl)phenyl)-3-(trans-4-((2-(pyridin-3-yl)pyrimidin-4-yl)oxy)cyclohexyl)urea] |
| 236 nM | COc1ccc(OC(F)(F)F)cc1NC(=O)N[C@H]1CC[C@H](Oc2ccnc(-c3cccnc3)n2)CC1 [Example 39, 1-(2-methoxy-5-(trifluoromethoxy)phenyl)-3-(trans-4-((2-(pyridin-3-yl)pyrimidin-4-yl)oxy)cyclohexyl)urea] |
| 98 nM | COc1ccc(C(F)(F)F)cc1NC(=O)N[C@H]1CC[C@H](Oc2nccc(-c3cccnc3)n2)CC1 [Example 40, 1-(2-methoxy-5-(trifluoromethyl)phenyl)-3-(trans-4-((4-(pyridin-3-yl)pyrimidin-2-yl)oxy)cyclohexyl)urea] |
| 45.6 nM | O=C(Nc1cc(C(F)(F)F)ccc1OC1COC1)N[C@H]1CC[C@H](Oc2nccc(-c3cccnc3)n2)CC1 [Example 41, 1-(2-(oxetan-3-yloxy)-5-(trifluoromethyl)phenyl)-3-(trans-4-((4-(pyridin-3-yl)pyrimidin-2-yl)oxy)cyclohexyl)urea] |
| 33.8 nM | COc1c(CO)cc(C(F)(F)F)cc1NC(=O)N[C@H]1CC[C@H](Oc2ccnc(-c3cccnc3)n2)CC1 [Example 45, 1-(3-(hydroxymethyl)-2-methoxy-5-(trifluoromethyl)phenyl)-3-(trans-4-((2-(pyridin-3-yl)pyrimidin-4-yl)oxy)cyclohexyl)urea] |
